For one series, the target named is T1, enzyme ACAT-1 (Homo sapiens, UniProt P35610).
T1 construct: endogenous in cells; host or cells: HepG2
T1 sequence (P35610 1-550): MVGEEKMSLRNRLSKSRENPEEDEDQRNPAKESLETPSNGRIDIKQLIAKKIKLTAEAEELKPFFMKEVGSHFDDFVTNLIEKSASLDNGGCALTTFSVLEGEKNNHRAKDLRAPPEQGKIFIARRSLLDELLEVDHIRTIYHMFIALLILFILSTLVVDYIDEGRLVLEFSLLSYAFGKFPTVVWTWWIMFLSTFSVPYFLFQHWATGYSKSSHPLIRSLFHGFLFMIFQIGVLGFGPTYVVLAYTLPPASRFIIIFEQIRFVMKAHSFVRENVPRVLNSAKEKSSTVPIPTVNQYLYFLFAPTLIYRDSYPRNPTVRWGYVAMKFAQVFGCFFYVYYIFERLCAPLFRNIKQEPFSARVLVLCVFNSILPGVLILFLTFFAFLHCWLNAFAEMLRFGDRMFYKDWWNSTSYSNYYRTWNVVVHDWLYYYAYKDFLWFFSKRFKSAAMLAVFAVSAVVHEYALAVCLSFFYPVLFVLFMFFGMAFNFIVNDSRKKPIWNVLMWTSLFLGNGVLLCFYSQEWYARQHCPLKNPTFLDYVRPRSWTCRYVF
As to the kind of experiment: HepG2 NBD-cholesterol fluorescence test for inhibitory activity towards the enzyme ACAT-1 (SOAT-1). It counts as cell-based.
Details: not given
The method, then:
The compounds (I) according to the invention, and also the pharmaceutically acceptable salts, solvates and/or hydrates thereof, have inhibitory properties on the enzyme SOAT-1. This inhibitory activity on the enzyme SOAT-1 is measured according to a HepG2 primary enzymatic test, as described in Example 15.
The compounds of formula (I) according to the invention were subjected to a test for evaluating their inhibitory activity towards the enzyme ACAT-1, inspired by the following publication: “Identification of ACAT1- and ACAT2-specific inhibitors using a novel, cell based fluorescence assay: individual ACAT uniqueness”, J. Lipid. Res. (2004) vol. 45, pages 378-386.
The principle of this test is based on the use of NBD-cholesterol, a cholesterol analogue whose fluorescence depends on its environment. When this molecule is in a polar environment, it is weakly fluorescent, whereas in a non-polar environment, it is strongly fluorescent. Free NBD-cholesterol becomes inserted in cell membranes and is weakly fluorescent in this polar environment. When NBD-cholesterol is esterified with ACAT, the NBD-cholesterol ester enters non-polar lipid droplets and is then strongly fluorescent.
The method below is applied: HepG2 cells are incubated in the presence of NBD-cholesterol (1 μg/ml) and of the test compound of formula (I) in black transparent-bottomed 96-well plates, at a rate of 30 000 cells per well. After incubation for 6 hours at 37° C. under 5% CO2, the medium is removed by turning upside-down and the cells are washed with twice 100 μl of PBS. After addition of 50 μl of lysis buffer (10 mM NaPO4, 1% Igepal), the plates are shaken for 5 minutes and the fluorescence is read (excitation at 490 nm, emission at 540 nm) on a Fusion machine (Perkin-Elmer).
Take `CC(=O)N1CCC2(CC1)C(=O)N(CC(=O)Nc1c(C(C)C)cccc1C(C)C)C(=O)N2c1ccc(C)cc1` [Compound 1, 2-(8-acetyl-2,4-dioxo-1-p-tolyl-1,3,8-triazaspiro[4.5]dec-3-yl)-N-(2,6-diisopropylphenyl)acetamide]: the IC50 (as a rule, the concentration at which inhibition is half-maximal) came to 1600 nM.

In the case of `Cc1ccc(N2C(=O)N(CC(=O)Nc3c(C(C)C)cccc3C(C)C)C(=O)C23CCN(C(=O)OC(C)(C)C)CC3)cc1` [Compound 2, 3-[(2,6-diisopropylphenylcarbamoyl)methyl]-2,4-dioxo-1-p-tolyl-1,3,8-triazaspiro[4.5]decane-8-carboxylic acid tert-butyl ester], the concentration for half-maximal inhibition (IC50) was 29 nM.

`Cc1ccc(N2C(=O)N(CC(=O)Nc3c(C(C)C)cccc3C(C)C)C(=O)C23CCN(C(=O)c2ccccc2)CC3)cc1` [Compound 3, 2-(8-benzoyl-2,4-dioxo-1-p-tolyl-1,3,8-triazaspiro[4.5]dec-3-yl)-N-(2,6-diisopropylphenyl)acetamide] gave an IC50 of 86 nM.

`Cc1ccc(N2C(=O)N(CC(=O)Nc3c(C(C)C)cccc3C(C)C)C(=O)C23CCN(Cc2ccccc2)CC3)cc1` [Compound 4, 2-(8-benzyl-2,4-dioxo-1-p-tolyl-1,3,8-triazaspiro[4.5]dec-3-yl)-N-(2,6-diisopropylphenyl)acetamide] yielded an IC50 of 5.8 nM.

In turn, `Cc1ccc(N2C(=O)N(CC(=O)Nc3c(C(C)C)cccc3C(C)C)C(=O)C23CCN(C)CC3)cc1` [Compound 5, N-(2,6-diisopropylphenyl)-2-(8-methyl-2,4-dioxo-1-p-tolyl-1,3,8-triazaspiro[4.5]dec-3-yl)acetamide] came in with an IC50 of 20 nM.

The series is the same for the next values; noted with them: HepG2 cells, NBD-cholesterol 1 μg/ml, incubation 6 hours at 37° C., fluorescence read (490/540 nm); read-out: IC50.
Regarding `Cc1ccc(N2C(=O)N(CC(=O)Nc3c(C(C)C)cccc3C(C)C)C(=O)C23CCC(O)CC3)cc1` (stereo not drawn) [Compound 6, N-(2,6-Diisopropylphenyl)-2-(8-hydroxy-2,4-dioxo-1-p-tolyl-1,3-diazaspiro[4.5]dec-3-yl)acetamide], the IC50 is 6.4 nM.

For the compound `Cc1ccc(N2C(=O)N(CC(=O)Nc3c(C(C)C)cccc3C(C)C)C(=O)C23CCSCC3)cc1` [Compound 7, N-(2,6-diisopropylphenyl)-2-(2,4-dioxo-1-p-tolyl-8-thia-1,3-diazaspiro[4.5]dec-3-yl)acetamide], the IC50 was found to be 1.8 nM.

Turning to `Cc1ccc(N2C(=O)N(CC(=O)Nc3c(C(C)C)cccc3C(C)C)C(=O)C23CCC(F)(F)CC3)cc1` [Compound 8, 2-(8,8-difluoro-2,4-dioxo-1-p-tolyl-1,3-diazaspiro[4.5]dec-3-yl)-N-(2,6-diisopropylphenyl)acetamide], the IC50 turned out to be 1.5 nM.

For `Cc1ccc(N2C(=O)N(CC(=O)Nc3c(C(C)C)cccc3C(C)C)C(=O)C23CCOCC3)cc1` [Compound 9, N-(2,6-diisopropylphenyl)-2-(2,4-dioxo-1-p-tolyl-8-oxa-1,3-diazaspiro[4.5]dec-3-yl)acetamide], the IC50 turned out to be 0.4 nM.

As to `CCc1cccc(CC)c1NC(=O)CN1C(=O)N(c2ccc(C)cc2)C2(CCOCC2)C1=O` [Compound 11, N-(2,6-diethylphenyl)-2-(2,4-dioxo-1-p-tolyl-8-oxa-1,3-diazaspiro[4.5]dec-3-yl)acetamide], the IC50 was 9.4 nM.

Test system in a further series: not given
Experiment: not given
Details: not given
Take `CC(=O)N1CCC2(CC1)C(=O)N(CC(=O)Nc1c(C(C)C)cccc1C(C)C)C(=O)N2c1ccc(C)cc1` [Compound 1, 2-(8-acetyl-2,4-dioxo-1-p-tolyl-1,3,8-triazaspiro[4.5]dec-3-yl)-N-(2,6-diisopropylphenyl)acetamide]: the melting point (usually the temperature of the solid-liquid transition) fell in the range of 136 to 138 °C.

Take `Cc1ccc(N2C(=O)N(CC(=O)Nc3c(C(C)C)cccc3C(C)C)C(=O)C23CCC(O)CC3)cc1` (stereo not drawn) [Compound 6, N-(2,6-Diisopropylphenyl)-2-(8-hydroxy-2,4-dioxo-1-p-tolyl-1,3-diazaspiro[4.5]dec-3-yl)acetamide]: the melting point lay within 142 to 144 °C.

Source of the values: patent publication US20120045500A1, “NOVEL DIOXO-IMIDAZOLIDINE DERIVATIVES, WHICH INHIBIT THE ENZYME SOAT-1, AND PHARMACEUTICAL AND COSMETIC COMPOSITIONS CONTAINING THEM” (GALDERMA RESEARCH & DEVELOPMENT, priority 2009, published 2012).
